Calls of active or inactive are those of the source. No cut-off for these calls is given here.
Experiments:
Rattus norvegicus [1] = assay: Antilipidemic activity in purina chow fed Sprague-Dawley rat assessed as reduction of serum cholesterol level at 0.124 mM/kg relative to control; format: functional; design: scale not given: the % may be the effect or the level left
Rattus norvegicus [2] = assay: Antilipidemic activity in triton WR-1339-induced hyperlipidemic Sprague-Dawley rat model assessed as reduction of serum cholesterol level at 0.124 mM/kg relative to control; format: functional; design: scale not given: the % may be the effect or the level left
Rattus norvegicus [3] = assay: Antilipidemic activity in purina chow fed Sprague-Dawley rat assessed as reduction of serum triglyceride level at 0.124 mM/kg relative to control; format: functional; design: scale not given: the % may be the effect or the level left
Rattus norvegicus [4] = assay: Antilipidemic activity in triton WR-1339-induced hyperlipidemic Sprague-Dawley rat model assessed as reduction of serum triglyceride level at 0.124 mM/kg relative to control; format: functional; design: scale not given: the % may be the effect or the level left
Rattus norvegicus [5] = assay: Antilipidemic activity in sucrose fed Sprague-Dawley rat model assessed as serum cholesterol level at 0.4 mmol/kg, po bid administered for 7 days measured after 12 hrs post last dose (reference value: 61.7 +/- 11.6 mg/dL); format: functional
Rattus norvegicus [6] = assay: Antilipidemic activity in sucrose fed Sprague-Dawley rat model assessed as serum cholesterol level at 0.2 mmol/kg, po bid administered for 7 days measured after 12 hrs post last dose (reference value: 61.7 +/- 11.6 mg/dL); format: functional
Rattus norvegicus [7] = assay: Antilipidemic activity in sucrose fed Sprague-Dawley rat model assessed as serum triglyceride level at 0.4 mmol/kg, po bid administered for 7 days measured after 12 hrs post last dose (reference value: 91.9 +/- 19.8 mg/dL); format: functional
Rattus norvegicus [8] = assay: Antilipidemic activity in sucrose fed Sprague-Dawley rat model assessed as serum triglyceride level at 0.2 mmol/kg, po bid administered for 7 days measured after 12 hrs post last dose (reference value: 91.9 +/- 19.8 mg/dL); format: functional
Rattus norvegicus [9] = assay: Antilipidemic activity in sucrose-fed Sprague-Dawley rat model assessed as reduction of liver cholesterol level at 0.4 mmol/kg, po bid administered for 7 days measured after 12 hrs post last dose (reference value: 1.86 +/- 0.17 mg/gm); format: functional
Rattus norvegicus [10] = assay: Antilipidemic activity in sucrose-fed Sprague-Dawley rat model assessed as reduction of liver cholesterol level at 0.2 mmol/kg, po bid administered for 7 days measured after 12 hrs post last dose (reference value: 1.86 +/- 0.17 mg/gm); format: functional
Rattus norvegicus [11] = assay: Antilipidemic activity in sucrose-fed Sprague-Dawley rat model assessed as reduction of liver triglyceride level at 0.4 mmol/kg, po bid administered for 7 days measured after 12 hrs post last dose relative to control; format: functional
Rattus norvegicus [12] = assay: Antilipidemic activity in sucrose-fed Sprague-Dawley rat model assessed as reduction of liver triglyceride level at 0.2 mmol/kg, po bid administered for 7 days measured after 12 hrs post last dose relative to control; format: functional
Rattus norvegicus [13] = assay: Antilipidemic activity in sucrose-fed Sprague-Dawley rat model assessed as reduction in HMG-CoA reductase activity at 0.4 mmol/kg, po bid administered for 7 days measured after 12 hrs post last dose relative to control; format: functional
Rattus norvegicus [14] = assay: Antilipidemic activity in sucrose-fed Sprague-Dawley rat model assessed as reduction in HMG-CoA reductase activity at 0.2 mmol/kg, po bid administered for 7 days measured after 12 hrs post last dose relative to control; format: functional
Rattus norvegicus [15] = assay: Increase in liver to body weight ratio in sucrose-fed Sprague-Dawley rat model at 0.4 mmol/kg, po bid administered for 7 days measured after 12 hrs post last dose (reference value: 4.07 +/- 0.28 %); format: ADME, organism-based; details: in vivo
Rattus norvegicus [16] = assay: Increase in liver to body weight ratio in sucrose-fed Sprague-Dawley rat model at 0.2 mmol/kg, po bid administered for 7 days measured after 12 hrs post last dose (reference value: 4.07 +/- 0.28 %); format: ADME, organism-based; details: in vivo
Rattus norvegicus [17] = assay: Increase in liver weight in sucrose-fed Sprague-Dawley rat model at 0.4 mmol/kg, po bid administered for 7 days measured after 12 hrs post last dose (reference value: 11.76 +/- 1.32 gm); format: ADME, organism-based; details: in vivo
Rattus norvegicus [18] = assay: Increase in liver weight in sucrose-fed Sprague-Dawley rat model at 0.2 mmol/kg, po bid administered for 7 days measured after 12 hrs post last dose (reference value: 11.76 +/- 1.32 gm); format: ADME, organism-based; details: in vivo
Rattus norvegicus [19] = assay: Increase in microsomal protein level in sucrose-fed Sprague-Dawley rat model at 0.4 mmol/kg, po bid administered for 7 days measured after 12 hrs post last dose (reference value: 32.7 +/- 2.2 mg/gm); format: ADME, organism-based; details: in vivo
Rattus norvegicus [20] = assay: Increase in microsomal protein level in sucrose-fed Sprague-Dawley rat model at 0.2 mmol/kg, po bid administered for 7 days measured after 12 hrs post last dose (reference value: 32.7 +/- 2.2 mg/gm); format: ADME, organism-based; details: in vivo
Rattus norvegicus [21] = assay: Increase in ethylmorphine N-demethylase activity in sucrose-fed Sprague-Dawley rat model at 0.2 mmol/kg, po bid administered for 7 days measured after 12 hrs post last dose relative to control; format: ADME, organism-based; details: in vivo
Rattus norvegicus [22] = assay: Increase in NADPH cytochrome c reductase activity in sucrose-fed Sprague-Dawley rat model at 0.2 mmol/kg, po bid administered for 7 days measured after 12 hrs post last dose relative to control; format: ADME, organism-based; details: in vivo
Rattus norvegicus [23] = assay: Increase in NADPH cytochrome c reductase activity in sucrose-fed Sprague-Dawley rat model at 0.2 mmol/kg, po bid administered for 7 days measured after 12 hrs post last dose (reference value: 148.7 +/- 17.7 nmol/mg/min); format: ADME, organism-based; details: in vivo
Rattus norvegicus [24] = assay: Effect on cytochrome b5 level in sucrose-fed Sprague-Dawley rat model assessed per mg of protein at 0.4 mmol/kg, po bid administered for 7 days measured after 12 hrs post last dose (reference value: 0.184 +/- 0.023 nmol); format: ADME, organism-based; details: in vivo
Rattus norvegicus [25] = assay: Effect on cytochrome b5 level in sucrose-fed Sprague-Dawley rat model assessed per mg of protein at 0.2 mmol/kg, po bid administered for 7 days measured after 12 hrs post last dose (reference value: 0.184 +/- 0.023 nmol); format: ADME, organism-based; details: in vivo
Rattus norvegicus [26] = assay: Effect on cytochrome P450 level in sucrose-fed Sprague-Dawley rat model assessed per mg of protein at 0.2 mmol/kg, po bid administered for 7 days measured after 12 hrs post last dose relative to control; format: ADME, organism-based; details: in vivo
Rattus norvegicus [27] = assay: Effect on cytochrome P450 level in sucrose-fed Sprague-Dawley rat model assessed per mg of protein at 0.2 mmol/kg, po bid administered for 7 days measured after 12 hrs post last dose (reference value: 0.361 +/- […] nmol); format: ADME, organism-based; details: in vivo
Rattus norvegicus [28] = assay: Antilipidemic activity in triton WR-1339-induced hyperlipidemic Sprague-Dawley rat model assessed as reduction of plasma lipid level at 0.124 mM/kg measured 43 hrs after triton WR-1339 challenge
Rattus norvegicus [29] = assay: Increase in ethylmorphine N-demethylase activity in sucrose-fed Sprague-Dawley rat model at 0.4 mmol/kg, po bid administered for 7 days measured after 12 hrs post last dose relative to control; format: ADME, organism-based; details: in vivo
Rattus norvegicus [30] = assay: Increase in NADPH cytochrome c reductase activity in sucrose-fed Sprague-Dawley rat model at 0.4 mmol/kg, po bid administered for 7 days measured after 12 hrs post last dose relative to control; format: ADME, organism-based; details: in vivo
Rattus norvegicus [31] = assay: Effect on cytochrome P450 level in sucrose-fed Sprague-Dawley rat model assessed per mg of protein at 0.4 mmol/kg, po bid administered for 7 days measured after 12 hrs post last dose relative to control; format: ADME, organism-based; details: in vivo

SMILES | Activity (Rattus norvegicus [1]) [%] | Activity (Rattus norvegicus [2]) [%] | Activity (Rattus norvegicus [3]) [%] | Activity (Rattus norvegicus [4]) [%] | Activity (Rattus norvegicus [5]) [mg/dL] | Activity (Rattus norvegicus [7]) [mg/dL] | Activity (Rattus norvegicus [9]) [mg/g] | Activity (Rattus norvegicus [11]) [mg/g] | Activity (Rattus norvegicus [13]) [nmol/mg/h] | Activity (Rattus norvegicus [15]) [%] | Activity (Rattus norvegicus [17]) [g] | Activity (Rattus norvegicus [19]) [mg/g] | Activity (Rattus norvegicus [24]) [nmol] | Activity (Rattus norvegicus [28]) | other results
CCOC(=O)[C@@]12Oc3ccc(Cl)cc3[C@@H]1[C@@H]1c3cc(Cl)ccc3O[C@@]12C(=O)OCC | 63.9 | 176.7 | 24.3 | 33 | 81 | 102.7 | 2.1 | 12.34 | 2.41 | 4.03 | 11.99 | 38.2 | 0.19 | inactive | Activity (Rattus norvegicus [6]): 69.5 mg/dL; Activity (Rattus norvegicus [8]): 70.2 mg/dL; Activity (Rattus norvegicus [10]): 1.98 mg/g; Activity (Rattus norvegicus [12]): 8.09 mg/g; Activity (Rattus norvegicus [14]): 2.42 nmol/mg/h; Activity (Rattus norvegicus [16]): 3.69%; Activity (Rattus norvegicus [18]): 11.24 g; Activity (Rattus norvegicus [20]): 41.4 mg/g; Activity (Rattus norvegicus [21]): 157%; Activity (Rattus norvegicus [22]): 123%; Activity (Rattus norvegicus [23]): 168.7 nmol/mg/min; Activity (Rattus norvegicus [25]): 0.179 nmol; Activity (Rattus norvegicus [26]): 138%; Activity (Rattus norvegicus [27]): 0.386 nmol
CCOC(=O)C(C)(C)Oc1ccc(Cl)cc1 [CLOFIBRATE] | 87 | 93.2 | 24.1 | 22.3 | 31.7 | 26.9 | 1.84 | 3.21 | 2.1 | 5.24 | 14.3 | 39.3 | 0.2 | inactive | Activity (Rattus norvegicus [29]): 180%; Activity (Rattus norvegicus [30]): 163%; Activity (Rattus norvegicus [31]): 262%

Reference: ChEMBL document CHEMBL3271994, “Diethyl (4baalpha,4calpha,9aalpha,9balpha)-3,6-dichlorocyclobuta[1,2-b:3,4-b']bisbenzofuran-9a,9b(4bH,4cH)-dicarboxylate: the cis,syn photodimer of ethyl 5-chlorobenzofuran-2-carboxylate, an analogue related to the antilipidemic drug clofibrate” (J Med Chem, 1978)
